Legend:
[1] = molecular target: T1, mouse Siglec-2-Fc-Avi (CD22) (Mus musculus, UniProt P35329); assay: SPR binding affinity to mouse CD22; conditions: steady-state analysis
T1 construct: made in house
T1 sequence (P35329 22-708 limits assumed): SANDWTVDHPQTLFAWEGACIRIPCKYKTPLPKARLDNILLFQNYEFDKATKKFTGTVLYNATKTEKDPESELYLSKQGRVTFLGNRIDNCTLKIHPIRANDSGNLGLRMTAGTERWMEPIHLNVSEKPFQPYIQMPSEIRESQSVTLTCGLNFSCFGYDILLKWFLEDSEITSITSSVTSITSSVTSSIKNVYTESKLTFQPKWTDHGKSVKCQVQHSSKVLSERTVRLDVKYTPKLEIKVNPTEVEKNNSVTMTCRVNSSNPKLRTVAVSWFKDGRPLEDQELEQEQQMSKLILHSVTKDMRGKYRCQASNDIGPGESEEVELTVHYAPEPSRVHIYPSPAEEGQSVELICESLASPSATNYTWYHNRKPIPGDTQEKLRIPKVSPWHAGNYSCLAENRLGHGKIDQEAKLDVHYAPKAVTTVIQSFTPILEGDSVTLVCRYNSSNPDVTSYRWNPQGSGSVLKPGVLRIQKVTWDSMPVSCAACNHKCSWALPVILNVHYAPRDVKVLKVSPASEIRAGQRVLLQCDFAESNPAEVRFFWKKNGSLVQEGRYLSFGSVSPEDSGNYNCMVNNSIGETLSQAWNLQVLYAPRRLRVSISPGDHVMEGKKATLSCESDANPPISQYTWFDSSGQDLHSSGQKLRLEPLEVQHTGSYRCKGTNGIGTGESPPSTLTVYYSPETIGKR
Description: (§1) Prior to immobilization, CD22 proteins were treated with SialoExo (Genovis, Cat #G1-SM1-020) for 4 hours at 37° C. to remove native sialic acid residues.
(§2) Capture of biotinylated CD22 constructs was performed using a Cytiva SA chip (BR100398) on a Biacore 8K instrument.
(§3) Binding experiments of Siglec-ligand conjugated proteins or Siglec ligand compounds were performed on the surfaces prepared above in 10 mM HEPES, 150 mM NaCl, 0.05% Tween-20, pH 7.5, 1% DMSO as the running buffer. […] The compounds were then allowed to dissociate from the surface for 120 seconds. […] Solvent correction was performed using 0.5, 1, 1.5, and 2% DMSO spike into running buffer without DMSO. […] Data was analyzed using steady-state analysis in Biacore Insight Evaluation Software, version 3.0 for Siglec ligand compounds.

[2] = molecular target: T2, human Siglec-2/CD22 protein (Homo sapiens, UniProt P20273); assay: SPR binding affinity to human CD22; conditions: steady-state analysis
T2 construct: purchased Acro Biosystems SI2-H82E3
T2 sequence (P20273 20-847): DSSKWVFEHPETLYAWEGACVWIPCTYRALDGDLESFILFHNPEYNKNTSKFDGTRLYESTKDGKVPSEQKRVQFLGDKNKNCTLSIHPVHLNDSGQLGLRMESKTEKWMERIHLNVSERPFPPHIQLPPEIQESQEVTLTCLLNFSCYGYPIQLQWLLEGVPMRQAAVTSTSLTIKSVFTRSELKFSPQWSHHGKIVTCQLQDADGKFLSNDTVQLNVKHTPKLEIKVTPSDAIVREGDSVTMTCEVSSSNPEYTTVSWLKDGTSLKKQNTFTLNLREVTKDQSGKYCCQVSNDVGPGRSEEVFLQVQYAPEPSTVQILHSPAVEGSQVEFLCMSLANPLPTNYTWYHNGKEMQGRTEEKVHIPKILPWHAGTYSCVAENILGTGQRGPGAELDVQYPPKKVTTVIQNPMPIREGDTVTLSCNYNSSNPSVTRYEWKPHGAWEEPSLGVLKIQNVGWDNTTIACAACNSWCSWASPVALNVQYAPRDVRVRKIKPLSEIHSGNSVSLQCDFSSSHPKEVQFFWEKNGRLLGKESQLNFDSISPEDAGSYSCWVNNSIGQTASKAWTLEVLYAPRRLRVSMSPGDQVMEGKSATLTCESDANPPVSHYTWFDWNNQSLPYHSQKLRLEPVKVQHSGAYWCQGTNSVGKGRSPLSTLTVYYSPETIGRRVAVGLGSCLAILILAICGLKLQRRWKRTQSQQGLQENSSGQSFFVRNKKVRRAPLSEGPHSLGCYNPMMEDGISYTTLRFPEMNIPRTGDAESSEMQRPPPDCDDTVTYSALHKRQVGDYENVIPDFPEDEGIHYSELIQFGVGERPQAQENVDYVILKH
Description: as §1, §2, §3

SMILES	Kd [1] [µM]	Kd [2] [nM]
C#CCOCCCCCCO[C@]1(C(=O)O)C[C@H](O)[C@@H](Nc2c(NC)c(=O)c2=O)[C@H]([C@H](O)[C@H](O)CNC(=O)Cc2ccc(Cl)cc2)O1 [Compound 191, (2R,4S,5R,6R)-6-((1R,2R)-3-(2-(4-chlorophenyl)acetamido)-1,2-dihydroxypropyl)-4-hydroxy-5-((2-(methylamino)-3,4-dioxocyclobut-1-en-1-yl)amino)-2-((6-(prop-2-yn-1-yloxy)hexyl)oxy)tetrahydro-2H-pyran-2-carboxylic acid]	> 10	< 1000
C#CCOCCOCCNc1c(NCCCCCCO[C@]2(C(=O)O)C[C@H](O)[C@@H](NC(=O)CO)[C@H]([C@H](O)[C@H](O)CNC(=O)c3ccccc3)O2)c(=O)c1=O [Compound 230, (2R,4S,5R,6R)-6-((1R,2R)-3-benzamido-1,2-dihydroxypropyl)-2-((6-((3,4-dioxo-2-((2-(2-(prop-2-yn-1-yloxy)ethoxy)ethyl)amino)cyclobut-1-en-1-yl)amino)hexyl)oxy)-4-hydroxy-5-(2-hydroxyacetamido)tetrahydro-2H-pyran-2-carboxylic acid]	1 to 10	1000 to 10000
CC(=O)NCCOCCOCCOCCOCCNC(=O)CCCCCCO[C@]1(C(=O)O)C[C@H](O)[C@@H](NC(C)=O)[C@H]([C@H](O)[C@H](O)CNC(=O)c2cccc(Cl)c2)O1 [Compound 270, (2R,4S,5R,6R)-5-acetamido-6-((1R,2R)-3-(3-chlorobenzamido)-1,2-dihydroxypropyl)-2-((2,19-dioxo-6,9,12,15-tetraoxa-3,18-diazapentacosan-25-yl)oxy)-4-hydroxytetrahydro-2H-pyran-2-carboxylic acid]	> 10	1000 to 10000
C#CCOCCOP(=O)(O)OCCCCCCO[C@]1(C(=O)O)C[C@H](O)[C@@H](NC(=O)CO)[C@H]([C@H](O)[C@H](O)CNC(=O)Cc2ccc(C(F)F)cc2)O1 [Compound 215, (2R,4S,5R,6R)-6-((1R,2R)-3-(2-(4-(difluoromethyl)phenyl)acetamido)-1,2-dihydroxypropyl)-4-hydroxy-2-((6-((hydroxy(2-(prop-2-yn-1-yloxy)ethoxy)phosphoryl)oxy)hexyl)oxy)-5-(2-hydroxyacetamido)tetrahydro-2H-pyran-2-carboxylic acid]	> 10	< 1000
C#CCOCCOCCO[C@]1(C(=O)O)C[C@H](O)[C@@H](NC(C)=O)[C@H]([C@H](O)[C@H](O)CNCc2cccc(Oc3ccccc3)c2)O1 [Compound 17, (2R,4S,5R,6R)-5-acetamido-6-((1R,2R)-1,2-dihydroxy-3-((3-phenoxybenzyl)amino)propyl)-4-hydroxy-2-(2-(2-(prop-2-yn-1-yloxy)ethoxy)ethoxy)tetrahydro-2H-pyran-2-carboxylic acid]	> 10	< 1000
C#CCOCCCCCCS[C@]1(C(=O)O)C[C@H](O)[C@@H](NC(=O)CO)[C@H]([C@H](O)[C@H](O)CNC(=O)c2cccc(Oc3ccccc3)c2)O1 [Compound 255, (2S,4S,5R,6R)-6-((1R,2R)-1,2-dihydroxy-3-(3-phenoxybenzamido)propyl)-4-hydroxy-5-(2-hydroxyacetamido)-2-((6-(prop-2-yn-1-yloxy)hexyl)thio) tetrahydro-2H-pyran-2-carboxylic acid]	1 to 10	< 1000
CC(=O)NCCOCCOCCOCCOCCNc1c(NCCCCCCO[C@]2(C(=O)O)C[C@H](O)[C@@H](NC(C)=O)[C@H]([C@H](O)[C@H](O)CNC(=O)Cc3ccc(Cl)cc3)O2)c(=O)c1=O [Compound 248, (2R,4S,5R,6R)-5-acetamido-6-((1R,2R)-3-(2-(4-chlorophenyl)acetamido)-1,2-dihydroxypropyl)-2-((6-((3,4-dioxo-2-((2-oxo-6,9,12,15-tetraoxa-3-azaheptadecan-17-yl)amino)cyclobut-1-en-1-yl)amino)hexyl)oxy)-4-hydroxytetrahydro-2H-pyran-2-carboxylic acid]	1 to 10	< 1000
CC(=O)NCCOCCOCCOCCOCCC(=O)NCCCCCO[C@]1(C(=O)O)C[C@H](O)[C@@H](NC(C)=O)[C@H]([C@H](O)[C@H](O)CNC(=O)Cc2ccc(Cl)cc2)O1 [Compound 249, (2R,4S,5R,6R)-5-acetamido-6-((1R,2R)-3-(2-(4-chlorophenyl)acetamido)-1,2-dihydroxypropyl)-2-((2,18-dioxo-6,9,12,15-tetraoxa-3,19-diazatetracosan-24-yl)oxy)-4-hydroxytetrahydro-2H-pyran-2-carboxylic acid]	1 to 10	1000 to 10000
C#CCOCCCCCCS[C@]1(C(=O)O)C[C@H](O)[C@@H](NC(=O)CO)[C@H]([C@H](O)[C@H](O)CNC(=O)c2ccc(Cl)cc2)O1 [Compound 251, (2S,4S,5R,6R)-6-((1R,2R)-3-(4-chlorobenzamido)-1,2-dihydroxypropyl)-4-hydroxy-5-(2-hydroxyacetamido)-2-((6-(prop-2-yn-1-yloxy)hexyl)thio) tetrahydro-2H-pyran-2-carboxylic acid]	1 to 10	1000 to 10000
C#CCOC(=O)NCc1ccc(CO[C@]2(C(=O)O)C[C@H](O)[C@@H](NC(=O)CO)[C@H]([C@H](O)[C@H](O)CNC(=O)Cc3ccc(Cl)cc3)O2)cc1 [Compound 117, (2R,4S,5R,6R)-6-((1R,2R)-3-(2-(4-chlorophenyl)acetamido)-1,2-dihydroxypropyl)-4-hydroxy-5-(2-hydroxyacetamido)-2-((4-((((prop-2-yn-1-yloxy)carbonyl)amino)methyl)benzyl)oxy)tetrahydro-2H-pyran-2-carboxylic acid]	< 1	< 1000
CC(=O)NCCOCCOCCOCCOCCOC(=O)NCCCCCCO[C@]1(C(=O)O)C[C@H](O)[C@@H](NC(C)=O)[C@H]([C@H](O)[C@H](O)CNC(=O)c2cccc(Cl)c2)O1 [Compound 268, (2R,4S,5R,6R)-5-acetamido-6-((1R,2R)-3-(3-chlorobenzamido)-1,2-dihydroxypropyl)-2-((2,19-dioxo-6,9,12,15,18-pentaoxa-3,20-diazahexacosan-26-yl)oxy)-4-hydroxytetrahydro-2H-pyran-2-carboxylic acid]	> 10	1000 to 10000
C#CCOP(=O)(O)OCCCCCO[C@]1(C(=O)O)C[C@H](O)[C@@H](NC(=O)CO)[C@H]([C@H](O)[C@H](O)CNC(=O)Cc2ccc(Cl)cc2)O1 [Compound 95, (2R,4S,5R,6R)-6-((1R,2R)-3-(2-(4-chlorophenyl)acetamido)-1,2-dihydroxypropyl)-4-hydroxy-2-((5-((hydroxy(prop-2-yn-1-yloxy)phosphoryl)oxy)pentyl)oxy)-5-(2-hydroxyacetamido)tetrahydro-2H-pyran-2-carboxylic acid]	1 to 10	< 1000
C#CCOCCCCCCO[C@]1(C(=O)O)C[C@H](O)[C@@H](NC(=O)CO)[C@H]([C@H](O)[C@H](O)CNC(=O)Cc2ccc(N3CCC(O)CC3)cc2)O1 [Compound 194, (2R,4S,5R,6R)-6-((1R,2R)-1,2-dihydroxy-3-(2-(4-(4-hydroxypiperidin-1-yl)phenyl)acetamido)propyl)-4-hydroxy-5-(2-hydroxyacetamido)-2-((6-(prop-2-yn-1-yloxy)hexyl)oxy)tetrahydro-2H-pyran-2-carboxylic acid]	1 to 10	1000 to 10000

Source: patent publication US20250064941A1, “SIGLEC LIGANDS, CONJUGATES, AND METHODS OF USE THEREOF” (Osprey Biopharmaceuticals, Inc., priority 2023, published 2025)
